Results: ChEMBL document CHEMBL1201862, “PubChem BioAssay data set” (2004)
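Following 48 hours of exposure in 96-well plates, responses at five concentrations were used to interpolate endpoints linearly. GI50 = concentration required for 50% inhibition of growth.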 The source made the active and inactive calls. Cut-off read from the data, not from the text of the source: active = GI50 up to about 1.1 µM and inactive = higher.

Assays:
Assay in all cases: NCI anticancer screen, dose series, 48 h
[1] = system: ACHN
[2] = system: BT-549
[3] = system: CCRF-CEM
[4] = system: COLO 205
[5] = system: HCT-15
[6] = system: HL-60
[7] = system: HOP-62
[8] = system: HOP-92
[9] = system: Hs-578T
[10] = system: IGROV-1
[11] = system: LOX IMVI
[12] = system: MDA-MB-231
[13] = system: MDA-N
[14] = system: Malme-3M
[15] = system: NCI-H522
[16] = system: SNB-19
[17] = system: T47D
[18] = system: U-251
[19] = system: OVCAR-5
[20] = system: SK-MEL-2

O=c1c2cc([N+](=O)[O-])ccc2n2n1Cc1ccccc1C2
GI50 [1]: > 100 µM (inactive) | GI50 [2]: 76.2 µM (inactive) | GI50 [3]: > 100 µM (inactive) | GI50 [4]: > 100 µM (inactive) | GI50 [5]: > 100 µM | GI50 [6]: > 100 µM (inactive) | GI50 [7]: > 100 µM (inactive) | GI50 [8]: > 100 µM (inactive) | GI50 [9]: 43.4 µM (inactive) | GI50 [10]: > 100 µM (inactive) | GI50 [11]: > 100 µM (inactive) | GI50 [12]: > 100 µM (inactive) | GI50 [13]: > 100 µM (inactive) | GI50 [14]: > 100 µM (inactive) | GI50 [15]: 64.6 µM (inactive) | GI50 [16]: > 100 µM (inactive) | GI50 [17]: 65.5 µM (inactive) | GI50 [18]: > 100 µM (inactive)

c1ccc2[nH]c3nc4ccccc4c-3cc2c1
GI50 [1]: 0.113 µM (active) | GI50 [2]: 0.512 µM (active) | GI50 [3]: 0.197 µM (active) | GI50 [4]: 0.207 µM (active) | GI50 [5]: 0.229 µM | GI50 [6]: 0.192 µM (active) | GI50 [8]: 7.26 µM (inactive) | GI50 [9]: 0.966 µM (active) | GI50 [10]: 0.286 µM (active) | GI50 [11]: 0.18 µM (active) | GI50 [12]: 1.24 µM (inactive) | GI50 [13]: 0.641 µM (active) | GI50 [14]: 0.92 µM (active) | GI50 [15]: 0.0824 µM (active) | GI50 [19]: 1.69 µM (inactive) | GI50 [20]: 0.445 µM (active) | GI50 [16]: 0.785 µM (active) | GI50 [18]: 0.454 µM (active)

OCC1c2ccccc2-n2nc(-c3ccccc3)c(O)c21 (stereo not drawn)
GI50 [1]: 16.8 µM (inactive) | GI50 [2]: 20 µM (inactive) | GI50 [3]: 28.6 µM (inactive) | GI50 [4]: 13.5 µM (inactive) | GI50 [5]: 14.9 µM | GI50 [7]: 41.9 µM (inactive) | GI50 [8]: 16.9 µM (inactive) | GI50 [9]: 42.2 µM (inactive) | GI50 [10]: 36.2 µM (inactive) | GI50 [11]: 20.7 µM (inactive) | GI50 [12]: 29.2 µM (inactive) | GI50 [13]: 46.1 µM (inactive) | GI50 [14]: 17.1 µM (inactive) | GI50 [15]: 22.1 µM (inactive) | GI50 [19]: > 100 µM (inactive) | GI50 [20]: 15.9 µM (inactive) | GI50 [16]: 37.9 µM (inactive) | GI50 [17]: 22.3 µM (inactive) | GI50 [18]: 19.4 µM (inactive)

CCCC(=O)NC(Nc1ccc(F)cc1)(C(F)(F)F)C(F)(F)F
GI50 [1]: 2.14 µM (inactive) | GI50 [2]: 80 µM (inactive) | GI50 [4]: 7.1 µM (inactive) | GI50 [5]: 5.79 µM | GI50 [6]: 1.75 µM (inactive) | GI50 [7]: > 100 µM (inactive) | GI50 [8]: > 100 µM (inactive) | GI50 [9]: > 55 µM (inactive) | GI50 [11]: 0.404 µM (active) | GI50 [12]: > 100 µM (inactive) | GI50 [13]: > 40.7 µM (inactive) | GI50 [14]: > 100 µM (inactive) | GI50 [15]: 27.4 µM (inactive) | GI50 [19]: > 100 µM (inactive) | GI50 [20]: 2.25 µM (inactive) | GI50 [16]: > 100 µM (inactive) | GI50 [17]: 7.14 µM (inactive) | GI50 [18]: > 100 µM (inactive)

Oc1nc2c(c(-c3ccccc3Cl)n1)COC/C2=C\c1ccccc1Cl
GI50 [1]: > 100 µM (inactive) | GI50 [2]: > 100 µM (inactive) | GI50 [3]: 49.3 µM (inactive) | GI50 [4]: > 100 µM (inactive) | GI50 [5]: > 100 µM | GI50 [6]: 71.4 µM (inactive) | GI50 [7]: > 100 µM (inactive) | GI50 [8]: > 100 µM (inactive) | GI50 [9]: > 100 µM (inactive) | GI50 [10]: 43.9 µM (inactive) | GI50 [11]: > 100 µM (inactive) | GI50 [12]: > 100 µM (inactive) | GI50 [13]: > 100 µM (inactive) | GI50 [19]: > 100 µM (inactive) | GI50 [20]: > 100 µM (inactive) | GI50 [16]: > 100 µM (inactive) | GI50 [17]: > 100 µM (inactive) | GI50 [18]: > 100 µM (inactive)

c1cc(C[S+]2CCCC2)oc1C[S+]1CCCC1
GI50 [1]: > 100 µM (inactive) | GI50 [2]: > 100 µM (inactive) | GI50 [3]: > 100 µM (inactive) | GI50 [4]: > 100 µM (inactive) | GI50 [5]: > 100 µM | GI50 [7]: > 100 µM (inactive) | GI50 [9]: > 100 µM (inactive) | GI50 [10]: > 100 µM (inactive) | GI50 [11]: > 100 µM (inactive) | GI50 [12]: > 100 µM (inactive) | GI50 [13]: > 100 µM (inactive) | GI50 [14]: > 100 µM (inactive) | GI50 [15]: > 100 µM (inactive) | GI50 [16]: > 100 µM (inactive) | GI50 [17]: > 100 µM (inactive) | GI50 [18]: > 100 µM (inactive)

C=CCC1CC(n2cc(C)c(=O)[nH]c2=O)OC1CO[Si](C)(C)C(C)(C)C (stereo not drawn)
GI50 [1]: 15.4 µM (inactive) | GI50 [2]: 16 µM (inactive) | GI50 [3]: 12.1 µM (inactive) | GI50 [4]: 13.5 µM (inactive) | GI50 [5]: 15.3 µM | GI50 [7]: 18.3 µM (inactive) | GI50 [8]: 15.8 µM (inactive) | GI50 [9]: 12.6 µM (inactive) | GI50 [10]: 11.2 µM (inactive) | GI50 [11]: 13 µM (inactive) | GI50 [12]: 13.7 µM (inactive) | GI50 [13]: 14 µM (inactive) | GI50 [14]: 10.5 µM (inactive) | GI50 [15]: 10.4 µM (inactive) | GI50 [19]: 17.3 µM (inactive) | GI50 [20]: 15.5 µM (inactive) | GI50 [16]: 16.2 µM (inactive) | GI50 [17]: 10.4 µM (inactive) | GI50 [18]: 13.6 µM (inactive)

C(/C=N/N=C1NCCCCN1)=N\N=C1NCCCCN1
GI50 [1]: > 100 µM (inactive) | GI50 [2]: > 100 µM (inactive) | GI50 [3]: > 100 µM (inactive) | GI50 [4]: > 100 µM (inactive) | GI50 [7]: > 100 µM (inactive) | GI50 [8]: > 100 µM (inactive) | GI50 [9]: > 100 µM (inactive) | GI50 [10]: > 100 µM (inactive) | GI50 [11]: > 100 µM (inactive) | GI50 [12]: > 100 µM (inactive) | GI50 [13]: > 100 µM (inactive) | GI50 [14]: > 100 µM (inactive) | GI50 [15]: > 100 µM (inactive) | GI50 [19]: > 100 µM (inactive) | GI50 [16]: > 100 µM (inactive) | GI50 [17]: > 100 µM (inactive) | GI50 [18]: > 100 µM (inactive)
